According to PubChem BioAssay (NCI):
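How tested: cells in 96-well plates exposed to compound for 48 hours at five concentrations. Abbreviation: GI50, concentration required for 50% inhibition of growth. TGI marks complete inhibition of growth.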

Legend:
Experiment in all cases: DTP human tumour cell line panel, 48 h
OVCAR-5 ovarian = tested on: OVCAR-5 ovarian
SK-MEL-28 melanoma = tested on: SK-MEL-28 melanoma
SN12C renal = tested on: SN12C renal
HOP-92 NSCLC = tested on: HOP-92 NSCLC
CCRF-CEM leukemia = tested on: CCRF-CEM leukemia
TK-10 renal = tested on: TK-10 renal
MALME-3M melanoma = tested on: MALME-3M melanoma
SR leukemia = tested on: SR leukemia
MOLT-4 leukemia = tested on: MOLT-4 leukemia
UACC-257 melanoma = tested on: UACC-257 melanoma

| Compound | TGI (OVCAR-5 ovarian) | TGI (SK-MEL-28 melanoma) | TGI (SN12C renal) | TGI (HOP-92 NSCLC) | TGI (CCRF-CEM leukemia) | TGI (TK-10 renal) | TGI (MALME-3M melanoma) | TGI (SR leukemia) | TGI (MOLT-4 leukemia) | TGI (UACC-257 melanoma) | GI50 (OVCAR-5 ovarian) | GI50 (SK-MEL-28 melanoma) | GI50 (SN12C renal) | GI50 (HOP-92 NSCLC) | GI50 (CCRF-CEM leukemia) | GI50 (TK-10 renal) | GI50 (MALME-3M melanoma) | GI50 (SR leukemia) | GI50 (MOLT-4 leukemia) | GI50 (UACC-257 melanoma) |
| --- | --- | --- | --- | --- | --- | --- | --- | --- | --- | --- | --- | --- | --- | --- | --- | --- | --- | --- | --- | --- |
| C[C@@H](CN1CC(=O)NC(=O)C1)N1CC(=O)NC(=O)C1 | 1190 µM | 1750 µM | 906 µM | 908 µM | 1840 µM | 1110 µM | 1100 µM | 1470 µM | 821 µM | 2390 µM | – | – | – | – | – | – | – | – | – | – |
| O=S(=O)(N/N=C/c1cccc(Cl)c1Cl)c1ccccc1 | > 100 µM | > 100 µM | > 100 µM | 82.5 µM | > 100 µM | > 100 µM | > 100 µM | > 100 µM | 58.1 µM | > 100 µM | – | – | – | – | – | – | – | – | – | – |
| CC(C)CC(=O)Nc1n[nH]c2c1CN(C(=O)C1CCN(C)CC1)C2(C)C | > 10 µM | > 10 µM | > 10 µM | 7.54 µM | > 10 µM | > 10 µM | > 10 µM | 2.59 µM | > 10 µM | > 10 µM | 1.9 µM | 0.626 µM | 1.27 µM | 0.451 µM | 0.95 µM | 2.81 µM | 6.95 µM | 0.135 µM | 0.917 µM | 1.19 µM |
| CN(C)C/C=C/C(=O)Nc1cc2c(Nc3ccc(F)c(Cl)c3F)ncnc2cc1OCCOC(F)F | 13.7 µM | 9.59 µM | 4.52 µM | 1.13 µM | 13.3 µM | 0.738 µM | 2.94 µM | 4.83 µM | 5.43 µM | 10.3 µM | 0.136 µM | 2.29 µM | 0.136 µM | 0.0585 µM | 2.47 µM | < 0.01 µM | 1.27 µM | 0.496 µM | 1.11 µM | 2.18 µM |
| COc1ccc(/C=C2\CC(C)CC3C2=NN(C(C)=O)C3c2ccc(OC)cc2)cc1 (configuration not stated) | 48.2 µM | – | 38.7 µM | 44.2 µM | > 100 µM | > 100 µM | 37.9 µM | 50.5 µM | 50.1 µM | 45 µM | 21.6 µM | – | 18.4 µM | 17.2 µM | 22 µM | 30.3 µM | 17.8 µM | 20.4 µM | 16.1 µM | 19.8 µM |
| CN1CCN(c2cc(C(=O)Nc3cc4cc(-c5cnn(C)c5)ccc4cn3)ccn2)CC1 | 11.9 µM | 2.89 µM | 12.7 µM | 3.6 µM | > 39.2 µM | 11.4 µM | 0.584 µM | 13.6 µM | 18 µM | 10.4 µM | 0.308 µM | 0.217 µM | 0.123 µM | 0.16 µM | 0.155 µM | 0.202 µM | 0.155 µM | 0.0472 µM | 0.221 µM | 0.146 µM |
| COc1ccc(-c2nc(C(=O)c3ccccc3)n(CC(=O)c3ccccc3)c2-c2ccc(OC)cc2)cc1 | > 100 µM | > 100 µM | > 100 µM | > 100 µM | > 100 µM | > 100 µM | > 100 µM | > 100 µM | > 100 µM | > 100 µM | > 100 µM | > 100 µM | > 100 µM | 12.4 µM | > 100 µM | > 100 µM | > 100 µM | > 100 µM | > 100 µM | > 100 µM |
| CC(=O)N1c2ccccc2NC2=C(C(=O)N(Cc3ccccc3)C2(C)C)C1c1ccco1 (configuration not stated) | > 25 µM | > 25 µM | > 25 µM | > 25 µM | > 25 µM | > 25 µM | > 25 µM | > 25 µM | > 25 µM | > 25 µM | 0.44 µM | > 25 µM | 0.589 µM | 1.02 µM | 0.258 µM | 6.14 µM | 1.2 µM | 0.463 µM | 0.786 µM | > 25 µM |
| COc1ccc(Cc2cc3c(cc2OCC(=O)O)OCO3)cc1 | > 100 µM | > 100 µM | > 100 µM | > 100 µM | > 100 µM | > 100 µM | > 100 µM | > 100 µM | > 100 µM | > 100 µM | – | – | – | – | – | – | – | – | – | – |
| C[C@@H]1Cc2c([nH]c3ccccc23)[C@@H](c2c(F)cc(NC3CN(CCCF)C3)cc2F)N1CC(F)(F)CO | 27.9 µM | 6.49 µM | 23.1 µM | 6.36 µM | 15.3 µM | 29.3 µM | 3.72 µM | > 100 µM | 20.6 µM | 4.51 µM | 14.1 µM | 2.45 µM | 9.69 µM | 1.15 µM | 3.44 µM | 14.4 µM | 1.77 µM | 3.83 µM | 3.91 µM | 1.97 µM |
| CN(C)CCSc1cccc(-c2cc(-c3cccc(SCCN(C)C)c3)nc(SCCN(C)C)n2)c1 | 19.5 µM | 3.4 µM | 24.7 µM | 6.87 µM | 4.8 µM | 9.65 µM | 3.38 µM | 4.49 µM | 4.66 µM | 3.02 µM | – | – | – | – | – | – | – | – | – | – |
| CCN(CC)c1ccc2c(c1)Oc1nc(N)c(C#N)c(N)c1C2Sc1ccc(OC)cc1 (configuration not stated) | 4.6 µM | 3.37 µM | – | 3.37 µM | 5.47 µM | 4.33 µM | 3.45 µM | 4.78 µM | 6.21 µM | 3.48 µM | 2.04 µM | 1.85 µM | – | 1.86 µM | 1.75 µM | 2.8 µM | 1.82 µM | 1.67 µM | 2.37 µM | 1.98 µM |
| COC(=O)CCC(=O)Nc1cc(Cl)ccc1Cl | > 100 µM | > 100 µM | > 100 µM | > 100 µM | > 100 µM | – | > 100 µM | > 100 µM | > 100 µM | > 100 µM | – | – | – | – | – | – | – | – | – | – |
| Cc1nc([C@H]2CC[C@H]3[C@@H]4CCC5=CC(=O)CC[C@]5(C)[C@H]4CC[C@]23C)cs1 | > 100 µM | > 100 µM | > 100 µM | > 100 µM | > 100 µM | > 100 µM | > 100 µM | – | > 100 µM | > 100 µM | > 100 µM | > 100 µM | > 100 µM | > 28.9 µM | 7.26 µM | 3.33 µM | 15.2 µM | 0.584 µM | 2.25 µM | 3.31 µM |
| O=C(O)c1cc2ccccc2c(N=Nc2cc(C(F)(F)F)ccc2Cl)c1O | > 100 µM | > 100 µM | > 100 µM | > 100 µM | > 100 µM | > 100 µM | > 100 µM | > 100 µM | > 100 µM | > 100 µM | – | – | – | – | – | – | – | – | – | – |
| O=C(O)c1cc2ccccc2oc1=O | > 100 µM | > 100 µM | > 100 µM | > 100 µM | > 100 µM | > 100 µM | > 100 µM | > 100 µM | > 100 µM | > 100 µM | – | – | – | – | – | – | – | – | – | – |
| COc1ccc(NC(=O)CC/C(CC(=O)C(C)(C)C)=N\NC(=O)C(N)=O)cc1 | > 100 µM | > 100 µM | > 100 µM | > 100 µM | > 100 µM | – | > 100 µM | > 100 µM | > 100 µM | > 100 µM | – | – | – | – | – | – | – | – | – | – |
| C#CCN(N=O)C(=O)NC(CCCNC(=O)OCc1ccccc1)C(=O)OCc1ccccc1 (configuration not stated) | > 100 µM | > 100 µM | > 100 µM | 96.3 µM | 52 µM | > 100 µM | > 100 µM | 84.2 µM | 65.5 µM | > 100 µM | – | – | – | – | – | – | – | – | – | – |
| O=C(O)/C(Cl)=C(\Cl)C(=O)NC1C2CC3CC(C2)CC1C3 (configuration not stated) | > 100 µM | > 100 µM | > 100 µM | > 100 µM | > 100 µM | – | > 100 µM | > 100 µM | > 100 µM | > 100 µM | – | – | – | – | – | – | – | – | – | – |
| CCN(CC)CCCC(C)Nc1nc(C)cc(Nc2ccc3nc(C)cc(N)c3c2)n1 (configuration not stated) | > 100 µM | 50.1 µM | > 100 µM | – | 41.6 µM | > 100 µM | 70.2 µM | 22.8 µM | – | > 100 µM | 45.8 µM | 24.3 µM | 37 µM | – | 15.3 µM | > 100 µM | 24.7 µM | 0.024 µM | – | 36.4 µM |
| COC(=O)NC1(NC(=O)OC)NC(=O)c2cc(OC)c(OC)c(OC)c2N1 | > 100 µM | > 100 µM | > 100 µM | – | > 100 µM | > 100 µM | > 100 µM | > 100 µM | > 100 µM | > 100 µM | – | – | – | – | – | – | – | – | – | – |
| Cc1ccc(C2NC(=O)c3ccccc3N2)s1 (configuration not stated) | > 100 µM | > 100 µM | 52.8 µM | – | > 100 µM | > 100 µM | > 100 µM | > 100 µM | > 100 µM | – | – | – | – | – | – | – | – | – | – | – |
| Cc1nc(-c2ccccc2)cc2c1c(=O)oc1ccccc12 | > 100 µM | > 100 µM | > 100 µM | > 100 µM | > 100 µM | – | > 100 µM | > 100 µM | > 100 µM | > 100 µM | – | – | – | – | – | – | – | – | – | – |
| Cc1[nH]c2ccccc2c1-c1cc(-c2cc(-c3c(C)[nH]c4ccccc34)nc(N)n2)nc(N)n1 | > 100 µM | > 100 µM | > 100 µM | > 100 µM | – | > 100 µM | > 100 µM | > 100 µM | > 100 µM | > 100 µM | – | – | – | – | – | – | – | – | – | – |
| COc1ccc(N/N=C(\CCN(C)C)c2ccccc2)cc1 | 91.7 µM | 7.83 µM | 17.2 µM | – | 23.5 µM | 6.02 µM | 35.2 µM | 15.6 µM | 44 µM | 16.4 µM | – | – | – | – | – | – | – | – | – | – |
